Structures can show the parent of a compound that is named as a salt.
Key:
[1] = POV of corn oil treated with SOP (POV titration); details: 0.4 mL in 8 mL corn oil, versus untreated corn oil (FIG. 3, 4)
Description: The POV of these solutions was measured periodically after standing on the laboratory benchtop at ambient light and temperature conditions.
Into a 15 mL glass vial was placed 0.201 gm of AKG and 2.011 gm of DET. The mixture was stirred with a small magnetic stirrer at room temperature over a weekend (approximately 3 days). However, not all of the AKG dissolved, so the vial was placed in a heating block at 90° C. for 15 minutes, and a clear solution was obtained. Upon cooling and standing for several days, no solid precipitated out. This material (0.4 mL) was diluted into 8 mL of corn oil to start the experiment. A sample was also made from just 0.4 mL of DET in 8 mL of corn oil. POV titration measurements were taken periodically of each sample versus untreated corn oil.
The performance of the SOPs were monitored by POV titration as described in Flavor & Fragrance Journal, M. Calandra and Y. Wang, 2020, 35:107-113 or as per the IFRA POV method (see www.ifraorg.org).

[2] = Aldehyde levels in salad dressing (DNPH derivatization, HPLC); details: ~2.7% (w/w) in ranch dressing, room temperature, versus untreated (FIG. 9)
Description: Aldehyde levels in corn oil or other foods (such as salad dressing) were measured using the DNPH derivatization followed by HPLC analysis method (J. Ag. Food Chem. Deng, F-Y. et al, (2014) 62, 52, 12545-12552; Food Res. Internat., Cao, J. et al, (2014) 64, 901-907). Alternatively, or in addition to aldehyde measurements by HPLC, organoleptic evaluation to assess the level of rancidity in a sample was done.
Treatment of Salad Dressing with a 2-Oxoacid Salt • Sample: Ranch dressing (chili lime flavor) • 2-Oxoacid salt used: Phenyl pyruvic acid dimethyldecylammonium salt • Dosage: ˜2.7% (w/w) (0.4 g of the salt was added to 15 g of salad dressing). • Storage conditions: Room temperature, capped loosely, and mixed periodically.

| Molecule | POV of corn oil [1] | aldehyde concentration (hexanal or 2-nonenal) in salad dressing [2] |
| --- | --- | --- |
| CCOC(=O)C(O)C(O)C(=O)OCC (centres unmarked) [DET, diethyl tartrate] | some measurable activity toward reducing the POV |  |
| Phenyl pyruvic acid dimethyldecylammonium salt |  | aldehyde levels were lower |
